Reference: the supplement of paper PMC11061612

Legend:
AZD8186 = compound: C[C@@H](Nc1cc(F)cc(F)c1)c1cc(C(=O)N(C)C)cc2c(=O)cc(N3CCOCC3)oc12 [AZD8186]; details: max 3 µM
Summary of the method: (§1)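 Cancer cell lines were dosed for 72 hours (final DMSO typically 0.2%) after 24 hours at 37°C and 5% CO2 in 1536-well plates containing 7.5 μl DMEM/F12 or RPMI with 10% FBS. Viability came from CellTiter-Glo 2.0 luminescence, scaled between blank-well and DMSO-well means, and dose responses were fitted to a two-parameter logistic curve with a non-linear mixed effects model. The single-agent IC50 was obtained from this fit.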

Savolitinib = compound: C[C@@H](c1ccc2nccn2c1)n1nnc2ncc(-c3cnn(C)c3)nc21 [Savolitinib]; details: max 1 µM
Summary of the method: as §1

Prexasertib = compound: COc1cccc(OCCCN)c1-c1cc(Nc2cnc(C#N)cn2)n[nH]1 [Prexasertib]; details: max 1 µM
Summary of the method: as §1

AZD2811 = compound: CCN(CCO)CCCOc1ccc2c(Nc3cc(CC(=O)Nc4cccc(F)c4)[nH]n3)ncnc2c1 [AZD2811]; details: max 1 µM
Summary of the method: as §1

AZD5991 = compound: Cc1c2c(nn1C)CSCc1cc(n(C)n1)CSc1cc(c3ccccc3c1)OCCCc1c(C(=O)O)n(C)c3c-2c(Cl)ccc13 [AZD5991]; details: max 1 µM
Summary of the method: as §1

Selumetinib = compound: Cn1cnc2c(F)c(Nc3ccc(Br)cc3Cl)c(C(=O)NOCCO)cc21 [Selumetinib]; details: max 10 µM
Summary of the method: as §1

SG3199 = compound: CC1=CN2[C@@H](C1)C=NC3=CC(=C(C=C3C2=O)OC)OCCCCCOC4=C(C=C5C(=C4)N=C[C@@H]6CC(=CN6C5=O)C)OC [SG3199]; details: max 0.001 µM
Summary of the method: as §1

Crizotinib = compound: C[C@@H](Oc1cc(-c2cnn(C3CCNCC3)c2)cnc1N)c1c(Cl)ccc(F)c1Cl [Crizotinib]; details: max 10 µM
Summary of the method: as §1

AZD1390 = compound: CC(C)n1c(=O)n(C)c2cnc3cc(F)c(-c4ccc(OCCCN5CCCCC5)nc4)cc3c21 [AZD1390]; details: max 0.3 µM
Summary of the method: as §1

Gefitinib = compound: COc1cc2ncnc(Nc3ccc(F)c(Cl)c3)c2cc1OCCCN1CCOCC1 [Gefitinib]; details: max 10 µM
Summary of the method: as §1

SN-38 = compound: CCc1c2c(nc3ccc(O)cc13)-c1cc3c(c(=O)n1C2)COC(=O)[C@]3(O)CC [SN-38]; details: max 0.3 µM
Summary of the method: as §1

AZD5153 = compound: COc1nnc2ccc(N3CCC(c4ccc(OCCN5CCN(C)C(=O)[C@H]5C)cc4)CC3)nn12 [AZD5153]; details: max 1 µM
Summary of the method: as §1

Trametinib = compound: CC(=O)Nc1cccc(-n2c(=O)n(C3CC3)c(=O)c3c(Nc4ccc(I)cc4F)n(C)c(=O)c(C)c32)c1 [Trametinib]; details: max 1 µM
Summary of the method: as §1

Dasatinib = compound: CC1=C(C(=CC=C1)Cl)NC(=O)C2=CN=C(S2)NC3=CC(=NC(=N3)C)N4CCN(CC4)CCO [Dasatinib]; details: max 2 µM
Summary of the method: as §1

AZD1775 = compound: C=CCn1c(=O)c2cnc(Nc3ccc(N4CCN(C)CC4)cc3)nc2n1-c1cccc(C(C)(C)O)n1 [AZD1775]; details: max 3 µM
Summary of the method: as §1

Alisertib = compound: COc1cc(Nc2ncc3c(n2)-c2ccc(Cl)cc2C(c2c(F)cccc2OC)=NC3)ccc1C(=O)O [Alisertib]; details: max 10 µM
Summary of the method: as §1

Taselisib = compound: Cc1nc(-c2cn3c(n2)-c2ccc(-c4cnn(C(C)(C)C(N)=O)c4)cc2OCC3)n(C(C)C)n1 [Taselisib]; details: max 10 µM
Summary of the method: as §1

Capivasertib = compound: C1CN(CCC1(C(=O)N[C@@H](CCO)C2=CC=C(C=C2)Cl)N)C3=NC=NC4=C3C=CN4 [Capivasertib]; details: max 10 µM
Summary of the method: as §1

Palbociclib = compound: CC(=O)c1c(C)c2cnc(Nc3ccc(N4CCNCC4)cn3)nc2n(C2CCCC2)c1=O [Palbociclib]; details: max 10 µM
Summary of the method: as §1

AZD6738 = compound: C[C@@H]1COCCN1C2=NC(=NC(=C2)C3(CC3)[S@](=N)(=O)C)C4=C5C=CNC5=NC=C4 [AZD6738]; details: max 10 µM
Summary of the method: as §1

AZD4320 = compound: CN(CC[C@H](CSC1=CC=CC=C1)NC2=C(C=C(C=C2)S(=O)(=O)NC(=O)C3=CC=C(C=C3)N4CCC(CC4)[C@H](C5=CC=CC=C5C6=CC=C(C=C6)Cl)O)S(=O)(=O)C(F)(F)F)CCO [AZD4320]; details: max 1 µM
Summary of the method: as §1

AZD7648 = compound: Cc1cc2ncnn2cc1Nc1ncc2c(n1)n(C1CCOCC1)c(=O)n2C [AZD7648]; details: max 10 µM
Summary of the method: as §1

Olaparib = compound: O=C(c1cc(Cc2n[nH]c(=O)c3ccccc23)ccc1F)N1CCN(C(=O)C2CC2)CC1 [Olaparib]; details: max 10 µM
Summary of the method: as §1

Venetoclax = compound: CC1(C)CCC(CN2CCN(c3ccc(C(=O)NS(=O)(=O)c4ccc(NCC5CCOCC5)c([N+](=O)[O-])c4)c(Oc4cnc5[nH]ccc5c4)c3)CC2)=C(c2ccc(Cl)cc2)C1 [Venetoclax]; details: max 1 µM
Summary of the method: as §1

AZD0156 = compound: CN(C)CCCOc1ccc(-c2ccc3ncc4c(c3c2)n(C2CCOCC2)c(=O)n4C)cn1 [AZD0156]; details: max 3 µM
Summary of the method: as §1

Doxorubicin = compound: COc1cccc2c1C(=O)c1c(O)c3c(c(O)c1C2=O)C[C@@](O)(C(=O)CO)C[C@@H]3O[C@H]1C[C@H](N)[C@H](O)[C@H](C)O1 [Doxorubicin]; details: max 1 µM
Summary of the method: as §1

Lapatinib = compound: CS(=O)(=O)CCNCc1ccc(-c2ccc3ncnc(Nc4ccc(OCc5cccc(F)c5)c(Cl)c4)c3c2)o1 [Lapatinib]; details: max 10 µM
Summary of the method: as §1

Cell Line	IC50, cell viability 72 h (AZD8186) [µM]	IC50, cell viability 72 h (Savolitinib) [µM]	IC50, cell viability 72 h (Prexasertib) [µM]	IC50, cell viability 72 h (AZD2811) [µM]	IC50, cell viability 72 h (AZD5991) [µM]	IC50, cell viability 72 h (Selumetinib) [µM]	IC50, cell viability 72 h (SG3199) [µM]	IC50, cell viability 72 h (Crizotinib) [µM]	IC50, cell viability 72 h (AZD1390) [µM]	IC50, cell viability 72 h (Gefitinib) [µM]	IC50, cell viability 72 h (SN-38) [µM]	IC50, cell viability 72 h (AZD5153) [µM]	IC50, cell viability 72 h (Trametinib) [µM]	IC50, cell viability 72 h (Dasatinib) [µM]	IC50, cell viability 72 h (AZD1775) [µM]	IC50, cell viability 72 h (Alisertib) [µM]	IC50, cell viability 72 h (Taselisib) [µM]	IC50, cell viability 72 h (Capivasertib) [µM]	IC50, cell viability 72 h (Palbociclib) [µM]	IC50, cell viability 72 h (AZD6738) [µM]	IC50, cell viability 72 h (AZD4320) [µM]	IC50, cell viability 72 h (AZD7648) [µM]	IC50, cell viability 72 h (Olaparib) [µM]	IC50, cell viability 72 h (Venetoclax) [µM]	IC50, cell viability 72 h (AZD0156) [µM]	IC50, cell viability 72 h (Doxorubicin) [µM]	IC50, cell viability 72 h (Lapatinib) [µM]
42-MG-BA (Glioblastoma)	2.53	> 1	0.0253	> 1	0.299	> 10	> 0.001	> 10	> 0.3	> 10	0.00739	0.401	> 1	0.0546	1.05	8.55	0.627	2.25	> 10	8.57	> 1	> 10	> 10	> 1	> 3	0.163	> 10
AGS (Gastric Carcinoma)	> 3	> 1	0.839	> 1	> 1	0.767	> 0.001	> 10	> 0.3	> 10	0.0226	0.251	0.0119	> 2	0.455	> 10	0.577	> 10	> 10	4.93	> 1	> 10	> 10	> 1	> 3	0.151	> 10
COLO-205 (Colorectal Carcinoma)	> 3	> 1	0.782	0.116	> 1	0.302	> 0.001	4.11	> 0.3	> 10	> 0.3	0.499	0.00616	> 2	> 3	0.743	4.25	> 10	7.97	> 10	> 1	> 10	> 10	> 1	> 3	0.518	> 10
DEL (T-Cell Non-Hodgkin's Lymphoma)	> 3	> 1	0.0054	0.151	0.0287	> 10	> 0.001	0.12	> 0.3	> 10	0.0023	0.0275	> 1	> 2	0.178	0.0203	> 10	> 10	3.53	0.707	> 1	> 10	8.26	> 1	2.81	0.0913	8.54
Daoy (Other Solid Carcinomas)	> 3	> 1	0.0467	> 1	> 1	> 10	> 0.001	> 10	> 0.3	> 10	0.00444	0.489	> 1	> 2	0.398	0.818	4.73	> 10	> 10	3.18	> 1	> 10	> 10	> 1	> 3	0.141	> 10
EC-GI-10 (Esophageal Squamous Cell Carcinoma)	> 3	> 1	0.171	> 1	> 1	> 10	> 0.001	> 10	> 0.3	3.7	0.0174	> 1	0.283	> 2	0.516	9.24	0.496	> 10	> 10	8.22	> 1	> 10	> 10	> 1	> 3	> 1	0.77
ES4 (Ewing's Sarcoma)	> 3	> 1	0.0243	> 1	> 1	> 10	> 0.001	> 10	> 0.3	> 10	0.00883	0.246	> 1	> 2	> 3	> 10	3.24	> 10	> 10	2.03	> 1	> 10	> 10	> 1	> 3	0.431	> 10
